Results as given in patent US10046022B2, “Synthetic peptide that increases radiosensitivity of tumor cells and use of same” (TOAGOSEI CO., LTD., priority 2015, dated 2018).
Peptide text beside a SMILES is read from it.

Tested on: HeLaS3 cells
Experiment: Radiosensitizing activity: cell survival rate (Cell Counting Kit-8, WST-8) of HeLaS3 cells after peptide and X-ray irradiation
Type: cell-based, human
Conditions: peptide 50 μM, X-ray dose 0 Gy, compared with 0 μM peptide
Procedure: Radiosensitizing activity of the radiosensitizing synthetic peptide (Sample 1) obtained in Example 1 was evaluated by measuring cell survival rates during culturing after having irradiated test cells supplied with the radiosensitizing synthetic peptide with radiation (here, X-rays).
Human carcinoma-derived cells (HeLaS3 cells) and cells derived from normal human tissue (CCD-1079Sk cells) were used for the test cells. […] Details of the evaluation test are as indicated below.
First, a cultured cell line derived from human cervical cancer in the form of HeLaS3 cells (ATCC™ CCL2.2) were prepared for use as test cells derived from a human tumor. […]
Next, at the point 48 hours had elapsed following X-ray irradiation, the viability of the test cells (the number of viable cells) was measured using a commercially available chromogenic assay kit (Cell Counting Kit-8, Dojindo Molecular Technologies, Inc.). Namely, the number of viable cells was measured by colorimetry by quantifying the amount of water-soluble formazan in the medium by measuring using absorption spectrophotometry (measuring wavelength: 450 nm, reference wavelength: 650 nm) based on the principle that the tetrazolium salt in the reagent is reduced by enzyme activity of viable cells resulting in the formation of water-soluble formazan. […]

## N=C(N)NCCC[C@H](NC(=O)[C@H](CCCNC(=N)N)NC(=O)[C@H](CO)NC(=O)[C@H](CCCCN)NC(=O)[C@H](CO)NC(=O)[C@H](CCCCN)NC(=O)[C@@H](N)CS)C(=O)N[C@@H](CO)C(=O)N[C@@H](CS)C(=O)O [Sample 1, CKSKSRRSC] (H-CKSKSRRSC-OH)
  cell survivability, Test Group 1 in comparison with Test Group 2 (cytotoxicity attributable to the peptide): slightly lower
